Reference: ChEMBL document CHEMBL1201862, “PubChem BioAssay data set” (2004)
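In this assay, cells in 96-well plates receive the compound at five concentrations for 48 hours. Endpoints are linearly interpolated between the surrounding concentrations. The concentration for 50% growth inhibition is given as GI50.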 Active and inactive are the calls of the source. Cut-off read from the data, not from the text of the source: active = GI50 up to about 1.1 µM and inactive = higher.

Legend:
Assay in all cases: growth of human tumour cells (NCI), 48 h
A498 = system: A498
A549 = system: A549
ACHN = system: ACHN
HCC 2998 = system: HCC 2998
HOP-92 = system: HOP-92
HT-29 = system: HT-29
KM12 = system: KM12
LOX IMVI = system: LOX IMVI
LXFL 529 = system: LXFL 529
M14 = system: M14
NCI-H460 = system: NCI-H460
OVCAR-5 = system: OVCAR-5
SF-268 = system: SF-268
SF-539 = system: SF-539
SW-620 = system: SW-620
TK-10 = system: TK-10
U-251 = system: U-251
UACC-62 = system: UACC-62

Measured: GI50

NS(=O)(=O)c1ccc(NC2=CC(=O)C(=O)c3ccccc32)cc1
inactive: A498 > 100 µM | A549 > 100 µM | ACHN > 100 µM | HCC 2998 > 100 µM | HOP-92 > 100 µM | HT-29 > 100 µM | KM12 > 100 µM | LOX IMVI > 100 µM | LXFL 529 > 100 µM | M14 > 100 µM | NCI-H460 > 100 µM | OVCAR-5 > 100 µM | SF-268 > 100 µM | SF-539 > 100 µM | SW-620 > 100 µM | TK-10 > 100 µM | U-251 > 100 µM | UACC-62 > 100 µM

O=[N+]([O-])c1ccc(/C=N/C23CC4CC(CC(C4)C2)C3)cc1
inactive: A498 > 100 µM | ACHN > 100 µM | HCC 2998 > 100 µM | HOP-92 > 100 µM | HT-29 > 100 µM | KM12 > 100 µM | LOX IMVI 85.7 µM | LXFL 529 > 100 µM | M14 > 100 µM | NCI-H460 > 100 µM | OVCAR-5 > 100 µM | SF-268 > 100 µM | SF-539 > 100 µM | TK-10 > 100 µM | U-251 > 100 µM | UACC-62 > 100 µM

CN(C)/C=C/C(=O)c1cccc(C(=O)/C=C/N(C)C)n1
inactive: A498 > 100 µM | A549 > 100 µM | ACHN > 100 µM | HCC 2998 > 100 µM | HOP-92 > 100 µM | HT-29 > 100 µM | KM12 > 100 µM | LOX IMVI > 100 µM | LXFL 529 > 100 µM | M14 > 100 µM | NCI-H460 > 100 µM | OVCAR-5 > 100 µM | SF-268 > 100 µM | SF-539 > 100 µM | SW-620 > 100 µM | TK-10 > 100 µM | U-251 > 100 µM | UACC-62 > 100 µM

O=C1c2c(c3c4ccccc4n(CC4CO4)c3c3[nH]c4ccccc4c23)C(=O)N1Cc1ccccc1 (stereo unspecified)
inactive: A498 31.9 µM | A549 > 100 µM | HCC 2998 > 100 µM | HOP-92 > 100 µM | HT-29 > 100 µM | KM12 > 100 µM | LOX IMVI > 100 µM | LXFL 529 > 100 µM | M14 > 100 µM | NCI-H460 89.5 µM | OVCAR-5 > 100 µM | SF-268 > 100 µM | SF-539 37.1 µM | SW-620 77.6 µM | TK-10 > 100 µM | U-251 > 100 µM | UACC-62 > 100 µM

CC1=NN(C(=O)Cc2ccccc2)C(=O)/C1=C\c1ccc([N+](=O)[O-])cc1
inactive: A498 > 100 µM | A549 > 100 µM | ACHN > 100 µM | HCC 2998 > 100 µM | HOP-92 1.15 µM | HT-29 > 100 µM | KM12 > 100 µM | LOX IMVI > 100 µM | LXFL 529 > 100 µM | M14 > 100 µM | NCI-H460 > 100 µM | OVCAR-5 > 100 µM | SF-268 > 100 µM | SF-539 > 100 µM | SW-620 > 100 µM | TK-10 > 100 µM | U-251 > 100 µM | UACC-62 > 100 µM

N#CCN1C(=O)c2cc([N+](=O)[O-])cc3cc([N+](=O)[O-])cc(c23)C1=O
inactive: A498 35.6 µM | A549 18.6 µM | ACHN 13.2 µM | HCC 2998 15 µM | HOP-92 17.1 µM | HT-29 16.8 µM | KM12 11.2 µM | LOX IMVI 6.41 µM | LXFL 529 9.23 µM | M14 17 µM | NCI-H460 14.9 µM | OVCAR-5 18.9 µM | SF-268 17 µM | SF-539 14.6 µM | SW-620 7.53 µM | TK-10 27.7 µM | U-251 17.9 µM | UACC-62 12.4 µM

O=C1C2C=CC(n3[nH]c(=O)n(Cc4ccccc4)c3=O)CC2C(=O)N1c1cccc(Cl)c1 (stereo unspecified)
inactive: A498 > 100 µM | A549 > 100 µM | ACHN > 100 µM | HCC 2998 > 100 µM | HOP-92 > 100 µM | HT-29 > 100 µM | KM12 > 100 µM | LOX IMVI > 100 µM | LXFL 529 > 100 µM | M14 > 100 µM | NCI-H460 > 100 µM | OVCAR-5 > 100 µM | SF-268 > 100 µM | SF-539 > 100 µM | SW-620 > 100 µM | TK-10 > 100 µM | U-251 > 100 µM | UACC-62 > 100 µM

CC1=CC(=O)CC2(C)CC[C@@H]3C[C@]12OC3(C)C (stereo partly specified)
inactive: A498 > 100 µM | A549 > 100 µM | ACHN > 100 µM | HCC 2998 > 100 µM | HOP-92 > 100 µM | HT-29 > 100 µM | KM12 > 100 µM | LOX IMVI > 100 µM | LXFL 529 > 100 µM | M14 > 100 µM | NCI-H460 > 100 µM | OVCAR-5 > 100 µM | SF-268 > 100 µM | SF-539 > 100 µM | SW-620 > 100 µM | TK-10 > 100 µM | U-251 > 100 µM | UACC-62 > 100 µM
